Patent US11807650B2, “NMDA receptor modulators and uses thereof” (Novartis AG, priority 2016, dated 2023)

Biological target: T1, human GRIN1 (transcript variant NR1-3) and GRIN2D expressed in Xenopus oocytes (Homo sapiens, UniProt O15399)
T1 construct: GenScript (GRIN2D synthesis) SC115601; host or cells: Xenopus oocytes injected with cRNA (1 GluN1 : 2 GluN2)
Assay: NR2D oocyte potentiation assay (two-electrode voltage clamp)
Type: cell-based
Settings: 10 uM test compound; glutamate and glycine 10 μM each; holding potential −40 mV
Experimental: NR2D Oocyte Potentiation Assay. Xenopus oocytes (Xenopus 1, Dexter, Mich.) were initially separated from the lobes of an ovary using surgical forceps; they were then defolliculated by constant agitation at room temperature in OR-2 buffer (82.5 mM NaCl; 2.5 mM KCl; 1 mM MgCl2; 5 mM HEPES; pH 7.4) containing 2 mg/ml collagenase Type 1 (Fisher Scientific, USA) for 1.5-2 hours. The cells were then gently aspirated with a Pasteur pipette to remove the follicular tissue; this was followed by washing three times with OR-2 to remove all traces of collagenase. The oocytes were then washed in ND-96 (96 mM NaCl, 2 mM KCl, 1.8 mM CaCl2, 1 mM MgCl2, 5 mM HEPES, 50 ng/L gentamycin, 100 units/ml penicillin and 100 μg/ml streptomycin; pH 7.6) three times and this was followed by incubation in ND-96 at room temperature with mild agitation for 15 minutes; subsequently they were stored for at least 2 hours at 16° C. before sorting and selection for injection. Oocytes selected for injection were incubated overnight in ND-96 at 16° C.
The human GRIN1 (transcript variant NR1-3 (Origene, SKU #: SC115601, Rockville, Md.) and GRIN2D (NCBI locus NM_000836, sequence optimized and synthesized by GenScript) were linearized and transcribed using the mMessage mMachine kit (Life Technologies) and promoters SP6 (for GluN1) and T7 (for GluN2D). cRNAs were mixed together at a ratio of 1 GluN1:2 GluN2. Each oocyte was injected with 50 nL of cRNA and stored in ND96 (96 mM NaCl, 2 mM KCl, 1.8 mM CaCl2, 1 mM MgCl2, 5 mM HEPES, 50 ng/L gentamycin, 100 units/ml penicillin and 100 μg/ml streptomycin; pH 7.6) at 16° C. for 72 h prior to recording.
Currents were recorded using a two-electrode voltage-clamp amplifier (Oocyte Clamp OC-725C; Warner Instrument Corp, Hamden, Conn.), and digitized using Digidata 1550A and pClamp (v. 10) software (Molecular Devices, Sunnyvale, Calif.). Electrodes were filled with 3 M KCl and had resistances that ranged from 0.2-1 MO. All measurements were made at a holding potential of −40 mV. Cells were continuously perfused with oocyte recording solution containing 90 mM NaCl, 1 mM KCl, 0.5 mM BaCl2, and 10 mM HEPES (Ph 7.4). Glutamate and Glycine (co-agonists) were applied at respective concentrations of 10 μM each. Co-agonists were applied until a plateau was reached, and test compounds were then added in the continued presence of co-agonists until a new plateau was reached. After the addition of the last test compound concentration, the oocyte was washed with oocyte recording buffer. Fraction of current remaining was calculated as [(current in presence of test compound−background current)/(co-agonist current−background current)] and IC50 values were computed using Prism 6.0 (Graphpad).

T1 sequence (O15399 28-1336, other chains not shown): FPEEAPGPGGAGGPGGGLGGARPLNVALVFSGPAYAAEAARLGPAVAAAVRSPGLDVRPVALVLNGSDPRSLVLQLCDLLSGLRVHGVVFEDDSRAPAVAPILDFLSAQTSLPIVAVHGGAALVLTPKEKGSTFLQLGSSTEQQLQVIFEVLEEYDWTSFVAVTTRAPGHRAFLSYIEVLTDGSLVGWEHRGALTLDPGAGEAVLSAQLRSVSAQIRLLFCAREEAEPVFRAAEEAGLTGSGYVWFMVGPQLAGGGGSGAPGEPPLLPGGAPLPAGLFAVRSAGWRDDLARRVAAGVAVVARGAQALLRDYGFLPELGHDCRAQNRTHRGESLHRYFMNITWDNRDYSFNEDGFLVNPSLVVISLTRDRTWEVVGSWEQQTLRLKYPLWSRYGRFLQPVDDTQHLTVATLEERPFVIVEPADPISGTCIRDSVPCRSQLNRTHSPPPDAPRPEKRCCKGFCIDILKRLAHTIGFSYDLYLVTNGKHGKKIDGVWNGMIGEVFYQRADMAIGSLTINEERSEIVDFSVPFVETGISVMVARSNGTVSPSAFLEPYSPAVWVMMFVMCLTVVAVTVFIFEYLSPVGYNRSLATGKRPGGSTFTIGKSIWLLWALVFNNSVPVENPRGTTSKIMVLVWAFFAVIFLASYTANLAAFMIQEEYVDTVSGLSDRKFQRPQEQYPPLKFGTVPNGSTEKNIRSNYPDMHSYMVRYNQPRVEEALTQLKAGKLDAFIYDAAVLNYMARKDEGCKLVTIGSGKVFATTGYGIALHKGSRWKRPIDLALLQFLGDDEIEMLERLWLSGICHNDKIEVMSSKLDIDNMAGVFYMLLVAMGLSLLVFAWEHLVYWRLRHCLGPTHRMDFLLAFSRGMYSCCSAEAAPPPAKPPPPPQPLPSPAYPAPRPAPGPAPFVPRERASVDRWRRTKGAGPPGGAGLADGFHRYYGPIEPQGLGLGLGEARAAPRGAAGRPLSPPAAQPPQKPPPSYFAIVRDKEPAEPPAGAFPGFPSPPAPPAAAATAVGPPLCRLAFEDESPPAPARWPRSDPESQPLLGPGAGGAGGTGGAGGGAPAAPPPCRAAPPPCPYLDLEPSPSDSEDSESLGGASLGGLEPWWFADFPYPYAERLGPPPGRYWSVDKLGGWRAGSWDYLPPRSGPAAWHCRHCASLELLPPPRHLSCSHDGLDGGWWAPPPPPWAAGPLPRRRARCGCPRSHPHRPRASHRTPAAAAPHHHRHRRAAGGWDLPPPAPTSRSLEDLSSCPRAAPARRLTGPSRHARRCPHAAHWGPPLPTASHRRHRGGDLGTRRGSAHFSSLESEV

Row | SMILES | activation at 10 µM
1 | CC(C)(C)c1ccc(-c2nc3n(c(=O)c2C#N)CCS3)cn1 [Example 1, 7-(6-(tert-butyl)pyridin-3-yl)-5-oxo-2,3-dihydro-5H-thiazolo[3,2-a]pyrimidine-6-carbonitrile] | 100 to 500%
2 | CC(C)(C)c1ccc(-c2nc3n(c(=O)c2C#N)CC=CCS3)cn1 [Example 2, 2-(6-(tert-butyl)pyridin-3-yl)-4-oxo-6,9-dihydro-4H-pyrimido[2,1-b][1,3]thiazepine-3-carbonitrile] | 10 to 100%
3 | CC(C)(C)c1ccc(-c2nc3sccn3c(=O)c2C#N)cn1 [Example 3, 7-(6-(tert-butyl)pyridin-3-yl)-5-oxo-5H-thiazolo[3,2-a]pyrimidine-6-carbonitrile] | 100 to 500%
4 | CC(C)(C)c1ncc(-c2nc3n(c(=O)c2C#N)CCS3)cn1 [Example 4, 7-(2-(tert-butyl)pyrimidin-5-yl)-5-oxo-2,3-dihydro-5H-thiazolo[3,2-a]pyrimidine-6-carbonitrile] | 100 to 500%
5 | CC(C)(C)c1ccc(-c2nc3n(c(=O)c2C#N)CN(c2ccccc2)CS3)cc1 [Example 5, 8-(4-(tert-butyl)phenyl)-6-oxo-3-phenyl-3,4-dihydro-2H,6H-pyrimido[2,1-b][1,3,5]thiadiazine-7-carbonitrile] | 10 to 100%
6 | CN1CSc2nc(-c3ccc(C(C)(C)C)cc3)c(C#N)c(=O)n2C1 [Example 6, 8-(4-(tert-butyl)phenyl)-3-methyl-6-oxo-3,4-dihydro-2H,6H-pyrimido[2,1-b][1,3,5]thiadiazine-7-carbonitrile] | 10 to 100%
7 | CCN1CSc2nc(-c3ccc(C(C)(C)C)cc3)c(C#N)c(=O)n2C1 [Example 7, 8-(4-(tert-butyl)phenyl)-3-ethyl-6-oxo-3,4-dihydro-2H,6H-pyrimido[2,1-b][1,3,5]thiadiazine-7-carbonitrile] | 10 to 100%
8 | CN1CSc2nc(-c3ccc(C(C)(C)C)nc3)c(C#N)c(=O)n2C1 [Example 8, 8-(6-(tert-butyl)pyridin-3-yl)-3-methyl-6-oxo-3,4-dihydro-2H,6H-pyrimido[2,1-b][1,3,5]thiadiazine-7-carbonitrile] | 10 to 100%
9 | CCN1CSc2nc(-c3ccc(C(C)(C)C)nc3)c(C#N)c(=O)n2C1 [Example 9, 8-(6-(tert-butyl)pyridin-3-yl)-3-ethyl-6-oxo-3,4-dihydro-2H,6H-pyrimido[2,1-b][1,3,5]thiadiazine-7-carbonitrile] | 10 to 100%
10 | CN1CSc2nc(-c3cnc(C(C)(C)C)nc3)c(C#N)c(=O)n2C1 [Example 10, 8-(2-(tert-butyl)pyrimidin-5-yl)-3-methyl-6-oxo-3,4-dihydro-2H,6H-pyrimido[2,1-b][1,3,5]thiadiazine-7-carbonitrile] | 10 to 100%
11 | CCN1CSc2nc(-c3cnc(C(C)(C)C)nc3)c(C#N)c(=O)n2C1 [Example 11, 8-(2-(tert-butyl)pyrimidin-5-yl)-3-ethyl-6-oxo-3,4-dihydro-2H,6H-pyrimido[2,1-b][1,3,5]thiadiazine-7-carbonitrile] | 10 to 100%
12 | CC(C)(C)c1ccc(-c2cc(=O)n3ccccc3n2)cc1 [Example 12, 2-(4-(tert-butyl)phenyl)-4H-pyrido[1,2-a]pyrimidin-4-one] | 10 to 100%
13 | CC(C)(C)c1ccc(-c2nc3n(c(=O)c2Br)CCCC3)cc1 [Example 13, 3-bromo-2-(4-(tert-butyl)phenyl)-6,7,8,9-tetrahydro-4H-pyrido[1,2-a]pyrimidin-4-one] | < 10%
14 | C=Cc1c(-c2ccc(C(C)(C)C)cc2)nc2n(c1=O)CCCC2 [Example 14, 2-(4-(tert-butyl)phenyl)-3-vinyl-6,7,8,9-tetrahydro-4H-pyrido[1,2-a]pyrimidin-4-one] | < 10%

The remaining lines, values ahead:

Row | activation at 10 µM | SMILES
15 | 10 to 100% | CC(C)(C)c1ccc(-c2nc3n(c(=O)c2Br)CCCC3)cn1 [Example 15, 3-bromo-2-(6-tert-butylpyridin-3-yl)-4H,6H, 7H,8H,9H-pyrido[1,2-a] pyrimidin-4-one]
16 | 10 to 100% | CC(C)(C)c1ccc(-c2nc3n(c(=O)c2C#N)CC(F)CS3)cn1 (stereo not shown) [Example 16, 8-(6-(tert-butyl)pyridin-3-yl)-3-fluoro-6-oxo-3,4-dihydro-2H,6H-pyrimido[2,1-b][1,3]thiazine-7-carbonitrile]
17 | 100 to 500% | CC(C)(C)c1ncc(-c2nc3n(c(=O)c2C#N)CC(F)CS3)cn1 (stereo not shown) [Example 17, 8-(2-tert-butylpyrimidin-5-yl)-3-fluoro-6-oxo-2H,3H, 4H,6H-pyrimido [2,1-b][1,3] thiazine-7-carbonitrile]
18 | 100 to 500% | CC(C)(C)c1ccc(-c2nc3ccccn3c(=O)c2C#N)cc1 [Example 18, 2-(4-(tert-butyl)phenyl)-4-oxo-4H-pyrido[1,2-a]pyrimidine-3-carbonitrile]
19 | 100 to 500% | CC(C)(C)c1ccc(-c2nc3ccccn3c(=O)c2C#N)cn1 [Example 19, 2-(6-(tert-butyl)pyridin-3-yl)-4-oxo-4H-pyrido[1,2-a]pyrimidine-3-carbonitrile]
20 | 100 to 500% | Cc1ccc2nc(-c3ccc(C(C)(C)C)nc3)c(C#N)c(=O)n2c1 [Example 21, 2-(6-(tert-butyl)pyridin-3-yl)-7-methyl-4-oxo-4H-pyrido[1,2-a]pyrimidine-3-carbonitrile]
21 | 100 to 500% | Cc1ccc2nc(-c3cnc(C(C)(C)C)nc3)c(C#N)c(=O)n2c1 [Example 22, 2-(2-(tert-butyl)pyrimidin-5-yl)-7-methyl-4-oxo-4H-pyrido[1,2-a]pyrimidine-3-carbonitrile]
22 | 10 to 100% | CC(C)(C)c1ccc(-c2nc3n(c(=O)c2C#N)CCCC3)cc1 [Example 23, 2-(4-(tert-butyl)phenyl)-4-oxo-6,7,8,9-tetrahydro-4H-pyrido[1,2-a]pyrimidine-3-carbonitrile]
23 | 100 to 500% | CC(C)(C)c1ccc(-c2nc3n(c(=O)c2C#N)CC(F)(F)CS3)cn1 [Example 24, 8-(6-(tert-butyl)pyridin-3-yl)-3,3-difluoro-6-oxo-3,4-dihydro-2H,6H-pyrimido[2,1-b][1,3]thiazine-7-carbonitrile]
24 | < 10% | CSc1c(-c2ccc(C(C)(C)C)cc2)nc2n(c1=O)CCCC2 [Example 25, 2-(4-(tert-butyl)phenyl)-3-(methylthio)-6,7,8,9-tetrahydro-4H-pyrido[1,2-a]pyrimidin-4-one]
25 | < 10% | C[S+]([O-])c1c(-c2ccc(C(C)(C)C)cc2)nc2n(c1=O)CCCC2 (stereo not shown) [Example 26, 2-(4-(tert-butyl)phenyl)-3-(methylsulfinyl)-6,7,8,9-tetrahydro-4H-pyrido[1,2-a]pyrimidin-4-one]
26 | < 10% | CSc1c(-c2ccc(C(C)(C)C)nc2)nc2n(c1=O)CCCC2 [Example 27, 2-(6-tert-butylpyridin-3-yl)-3-(methylsulfanyl)-4H,6H,7H, 8H,9H-pyrido[1,2-a] pyrimidin-4-one]
27 | 100 to 500% | CC(C)(C)c1ccc(-c2nc3n(c(=O)c2Br)CCCS3)cc1 [Example 28, 7-bromo-8-(4-(tert-butyl)phenyl)-3,4-dihydro-2H,6H-pyrimido[2,1-b][1,3]thiazin-6-one]
28 | 10 to 100% | Cc1c(-c2ccc(C(C)(C)C)cc2)nc2n(c1=O)CCCS2 [Example 29, 8-(4-(tert-butyl)phenyl)-7-methyl-3,4-dihydro-2H,6H-pyrimido[2,1-b][1,3]thiazin-6-one]
